Measured values as given in US9114119B2, “Use of serine palmitoyl transferase inhibitors for preventing and delaying inherited retinal degenerations and compositions thereof” (Universita' degli Studi di Milano, priority 2009, dated 2015).

Columns and labels:
[1] = tested on: endogenous ceramide in the retina of rd10 mutant mice; assay: Retinal endogenous ceramide levels (diacylglycerol kinase test) after single intravitreal injection, rd10 mice; assay type: in vivo, mouse; details: single intravitreal injection 500 nanoliters 188 mM at P19, retinas isolated at P21
Protocol: (§1) The levels of the sphingolipid endogenous ceramide were tested after isolation of the retina from anaesthetised rd10 mutant and wild-type (wt) mice of various age groups. The isolated retinas were treated for lipid extraction, and the total endogenous ceramide/inorganic phosphate ratio was determined with the diacylglycerol kinase test.
(§2) Single intravitreal injections of 500 nanoliters of myriocin (188 mM) were administered to the right eye of rd10 and wt mice aged P19. The vehicle alone (DMSO) was injected into the left eye of the same animals. The left and right retinas were isolated at P21, and treated separately for the biochemical ceramide test as explained above.

[2] = tested on: endogenous ceramide in the retina of wt mice; assay: Retinal endogenous ceramide levels (diacylglycerol kinase test) after single intravitreal injection, wt mice; assay type: in vivo, mouse; details: single intravitreal injection 500 nanoliters 188 mM at P19, retinas isolated at P21
Protocol: as §1, §2

[3] = tested on: pyknotic photoreceptors of rd10 mice; assay: Pyknotic photoreceptor count after intravitreal injection; assay type: in vivo, mouse
Protocol: as §2
The animals injected at P19 were collected at P21, and their eyes were enucleated and fixed. The left and right retinas were isolated, stained with fluorescent DNA-binding molecules, and mounted on slides. The external nuclear layer which contains the photoreceptor cores was sampled under the confocal microscope at regular intervals along the four retinal meridians. The images were exported to a computerised workstation, and the pyknotic photoreceptors were counted in each scanned field. The total number of pyknotic photoreceptors was calculated for each pair of treated and control retinas.

[4] = tested on: retinal morphology of rd10, wt and Thy1-GFP mice; details: mouse, in vivo
rd10 and wt mice = assay: Toxicity studies of intraocular injections; assay type: in vivo, mouse
Text: It should be noted that myriocin has only rarely been used in vivo to date, and never injected intraocularly. The dose was chosen on the basis of the available literature on cultured cells, calculating a dilution of ⅞ times, due to the vitreous humour. A time window was selected for intraocular administration which preceded the peak death of the apoptotic photoreceptors, for the crucial reason of preventing the majority of photoreceptors from entering the apoptotic cycle.

[5] = tested on: photoreceptors of rd10 mice; details: mouse, in vivo
Text: The functional recovery of the photoreceptors was studied by recording a flash electroretinogram (ERG), a technique widely used to test the retinal physiology of human patients, especially those suffering from RP.

[6] = tested on: photoreceptors of rd10 mice; assay: Rows of photoreceptor nuclei in the outer nuclear layer (ONL) after nanosphere eyedrops; assay type: in vivo; details: rd10 mice aged P24, MYR-SLN treated vs control mouse (FIG. 1a)
Text: Following ERG recordings, animals were enucleated, their eyes fixed and sectioned and retinal sections stained with fluorescent nuclear dyes to evaluate the thickness of the outer nuclear layer (ONL) and the overall retinal morphology.
A quantitative analysis of the average number of rows of nuclei in the ONL of MYR-SLN and U-SLN (Unloaded-Solid Lipid Nanospheres) treated mice is given in FIG. 1b.

## CCCCCCC(=O)CCCCCC/C=C/C[C@@H](O)[C@H](O)[C@@](N)(CO)C(=O)O [myriocin]
[1]
  retinal ceramide levels vs control (DMSO) eyes: Significantly lower ceramide levels
[2]
  retinal ceramide levels: did not significantly reduce
[3]; rd10 mice injected at P19, collected at P21, vs DMSO eye, n=17
  reduction of photoreceptor death rate (pyknotic photoreceptor count): approx. 50%
[3]; rd10 mutant mice, intravitreal injection
  number of pyknotic (dying) photoreceptors: marked reduction
[4]
  morphology of ganglion cells and retinal stratification: excellent maintenance of the morphology of the ganglion cell and structure
  retinal morphology: normal retinal morphologies
rd10 and wt mice; rd10 or wt mice
  adverse effects of intraocular injections: do not cause adverse effects
rd10 and wt mice; treated animals, intraocular injection
  inflammatory response symptoms or increased ocular reactivity: no general or local inflammatory response symptoms
[5]
  recovery of ERG response: no recovery of ERG response/reaction
[6]
  number of preserved nuclear rows in the ONL: significantly higher
